In general, IC50 refers to the concentration that inhibits the measured activity by half. The low end stands for greater potency in that assay, the high end for weaker potency in that assay. As usually defined, the Ki is a dissociation constant, usually derived from enzyme kinetics or from competition with a known ligand. A higher Ki goes with lower affinity.

A short description of data set [1]: Incubation with 16 individual human liver microsomes (correlation analysis). The conditions noted are these: 60 minutes, n = 2. It counts as in vitro ADME. The method, then:
Ataluren at a concentration of 10 μmol/L, was incubated (n = 2) with 16 individual HLM at 0.5 mg protein concentration/mL for 0 and 60 minutes at 37°C. Enzyme activities for UGTs 1A1, 1A4, 1A6, 1A9, and 2B7 were precharacterized under optimized conditions by the vendor. Incubation mixtures and procedures were essentially the same as the above. The supernatant fractions were analyzed by LC‐MS/MS to quantify the formation of ataluren‐O‐1β‐acyl glucuronide and the loss of ataluren, and the enzyme activities were correlated with precharacterized UGT enzyme activities. Detailed LC‐MS/MS conditions are summarized in LC‐MS/MS Analysis section. […] The ataluren acyl glucuronide formation rate after 60 minutes incubation was calculated using the amount of metabolite formed (pmol) divided by the protein amount in the incubation sample ([…]) and the incubation time (60 minutes). […]
Quantification of ataluren loss and ataluren‐O‐1β‐acyl glucuronide formation was carried out with an LC‐MS/MS system, which consisted of two Shimadzu LC‐10ADvp pumps, a SPD10‐AVP UV/Vis detector, a Shimadzu SILHTA autosampler, a Shimadzu DGU‐14A degasser, and a Sciex API 4000 QTRAP mass spectrometer equipped with a Turbo Ionspray ionization source that operated in positive ionization mode. […]

The target in another data set is T1, CYP2C8 (Homo sapiens, UniProt P10632).
T1 construct: tissue XenoTech LLC, Celsis-In Vitro Technologies, or Tissue Transformation Technologies; host or cells: pooled human liver microsomes
T1 sequence (P10632 1-490): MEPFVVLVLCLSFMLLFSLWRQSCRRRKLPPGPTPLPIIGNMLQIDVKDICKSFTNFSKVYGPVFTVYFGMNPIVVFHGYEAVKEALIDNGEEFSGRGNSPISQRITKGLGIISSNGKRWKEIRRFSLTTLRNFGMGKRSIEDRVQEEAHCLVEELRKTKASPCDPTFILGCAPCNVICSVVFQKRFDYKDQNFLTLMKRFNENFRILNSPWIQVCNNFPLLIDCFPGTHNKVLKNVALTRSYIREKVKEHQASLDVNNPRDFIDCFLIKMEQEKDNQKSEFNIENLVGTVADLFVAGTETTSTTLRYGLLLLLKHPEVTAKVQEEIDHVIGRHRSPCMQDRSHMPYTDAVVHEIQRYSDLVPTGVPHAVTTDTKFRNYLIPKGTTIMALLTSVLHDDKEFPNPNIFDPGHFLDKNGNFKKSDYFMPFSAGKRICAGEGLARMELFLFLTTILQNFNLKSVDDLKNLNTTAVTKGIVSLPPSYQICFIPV
Description: CYP inhibition in pooled human liver microsomes: CYP2C8. In kind it is in vitro ADME. The procedure: The final concentration of each probe substrate was near the experimentally determined Km value for the indicated enzyme. Ataluren or prototypical CYP inhibitors (positive controls) was incubated (n = 3) with probe substrates and HLM in 100 mmol/L phosphate buffer (pH 7.4) in a total volume of approximately 0.25 mL, and the reactions were initiated by the addition of 1 mmol/L NADPH at 37°C. The reactions were carried out using previously established conditions to ensure linearity with respect to protein concentration and incubation time (Table S1). Incubations were stopped with the addition of ice‐cold acetonitrile. Metabolite formation in incubations with test compound and control inhibitors was assessed with LC‐MS/MS methods for each of the reaction products as described in Table S2. […] After 7 minutes incubation at 37°C, the reaction was stopped by the addition of ice‐cold acetonitrile, followed by membrane plate filtration. The filtrates were used for LC‐MS/MS analysis. Enzyme activity remaining at each nonzero ataluren concentration after incubation was normalized against control sample (zero ataluren concentration, enzyme activity = 100%), and the % remaining enzyme activity values were used for IC50 calculation. IC50 values were determined by nonlinear regression with GraphPad Prism 5 using the following four‐parameter sigmoidal‐logistic IC50 equation: Fit=background+range-background/[1+I/IC50^slope]
Where, I is the inhibitor concentration, and background was set to 0 and range to 100, as percent of control values are utilized. K i was determined by nonlinear regression with GraphPad Prism 5 using best fit model.
Background: Liver microsomes are a subcellular fraction often used to study metabolism.

SMILES strings stand for the structures.

As to `O=C(O)c1cccc(-c2noc(-c3ccccc3F)n2)c1` [ataluren, Ataluren], the “Rate, Loss of ataluren” value in data set [1] (individual HLM sample H0273, 10 μmol/L) came to 111 pmol/mg/min; in data set [1] (individual HLM sample H0295, 10 μmol/L) it was 134 pmol/mg/min. The IC50 against CYP2C8 (Amodiaquine N-deethylase, pooled HLM, n=3, (95% confidence interval)) was found to be 163 µM; against CYP2C8 (human, pooled human liver microsomes, pH 7.4, CYP2C8, HLM), 165 µM. For the same molecule, at CYP2C8 (CYP2C8, amodiaquine N-deethylase), the mechanism of inhibition result is “noncompetitive inhibitor”. Moreover, the Ki on CYP2C8 (CYP2C8, noncompetitive, mean ± SE, n = 3) came out at 169 ± 6.19 µM.

These data come from article PMC7083565, “In vitro metabolism, reaction phenotyping, enzyme kinetics, CYP inhibition and induction potential of ataluren” (Pharmacology Research & Perspectives, 2020).
